From patent publication US12371464B2, “Polypeptides and uses thereof” (MEDIMMUNE LIMITED, priority 2020, dated 2025)
Numbered stars: 1 amine (or outer) side, 2 acyl side, 3 side chain; on linkers, the order of the positions; unused ones are H or OH. Bridge positions count the residues as written; N and C are the ends. Square brackets hold non-standard residues; d marks the D form. Side chains are listed from the residue outwards. Peptide text beside a SMILES is read from it. * marks the point of attachment. C20 diacid = O=C(O)CCCCCCCCCCCCCCCCCCC(=O)*; C18 diacid = O=C(O)CCCCCCCCCCCCCCCCC(=O)*; γGlu = O=C(O)[C@H](CCC(=O)[*:2])N[*:1]; αMeF = C[C@](N)(Cc1ccccc1)C(=O)O; Dab = NCC[C@H](N)C(=O)O; Aib = CC(C)(N)C(=O)O

Assay: Thioflavin T fibrillation assay
Format: physicochemical
Settings: for Time taken to detect increase in fluorescence intensity: 1 mg/mL in 25 mM sodium acetate buffer pH 4.0, 37° C., 6 days, orbital shaking, >144 h = no increase; for fibril-forming tendency on conjugating pramlintide to a lipid: as seen in Table 7
From the text: Peptide aggregation that form fibrils is an indication of physical instability. Fibril formation in solution poses a significant risk for the stability of injectable peptide drug products. Thioflavin T (ThT) fibrillation assay is a useful tool to assess the aggregation kinetics of a peptide or protein under accelerated and stressed conditions that can be used to forecast the long-term viability of a compound in solution. ThT can selectively bind amyloid fibrils and the resultant complex emits strong fluorescence signal at 482 nm when excited at 450 nm (Anal Biochem. 1989 March; 177 (2): 244-9). Monitoring of the change in fluorescence signal is an established method to study the fibril forming potential of peptides and proteins. ThT (purchased from Sigma Aldrich) stock solution is prepared by dissolving the ThT powder in Milli-Q water and filtered to obtain a 0.25 mM solution. The concentration of the solution is measured at 412 nm using an extinction coefficient of 36 mM-1 cm-1. Test peptides were dissolved at 1 mg/mL in 25 mM sodium acetate buffer pH 4.0. 100 μL aliquot of peptide solution and 5 μL aliquot of ThT solution were placed in a clear bottom black fluorescence 96-well plate. 5 replicates of each test samples were placed in the same row of the plate. Buffer was placed in control wells for baseline correction. All empty wells were filled with water to prevent evaporation. The plate was sealed with aluminium seal and placed in fluorescence plate reader and incubated for 6 days at 37° C. with intermittent orbital shaking at 500 to 750 rpm. The fluorescence intensity was measured every 30 min using excitation at 444 nm and emission at 480 nm. The fibril forming potential of the test peptides was determined by measuring the average time taken to detect an increase in baseline corrected fluorescence intensity.

| Structure (SMILES) | Time taken to detect increase in fluorescence intensity | fibril-forming tendency on conjugating pramlintide to a lipid |
| --- | --- | --- |
| CC[C@H](C)[C@H](NC(=O)[C@@H]1CCCN1C(=O)CNC(=O)[C@H](Cc1ccccc1)NC(=O)[C@H](CC(N)=O)NC(=O)[C@H](CC(N)=O)NC(=O)[C@H](CO)NC(=O)[C@H](CO)NC(=O)[C@H](Cc1c[nH]cn1)NC(=O)[C@@H](NC(=O)[C@H](CC(C)C)NC(=O)[C@H](Cc1ccccc1)NC(=O)[C@H](CC(N)=O)NC(=O)[C@H](C)NC(=O)[C@H](CC(C)C)NC(=O)[C@H](CCCNC(=N)N)NC(=O)[C@H](CCC(N)=O)NC(=O)[C@@H](NC(=O)[C@H](C)NC(=O)[C@@H]1CSSC[C@H](NC(=O)[C@H](CCCCN)NC(=O)CNC(=O)CNC(=O)CNC(=O)CC[C@H](NC(=O)CC[C@H](NC(=O)CCCCCCCCCCCCCCCCC(=O)O)C(=O)O)C(=O)O)C(=O)N[C@@H](CC(N)=O)C(=O)N[C@@H]([C@@H](C)O)C(=O)N[C@@H](C)C(=O)N[C@@H]([C@@H](C)O)C(=O)N1)[C@@H](C)O)C(C)C)C(=O)N[C@@H](CC(C)C)C(=O)N1CCC[C@H]1C(=O)N1CCC[C@H]1C(=O)N[C@H](C(=O)N[C@@H](CC(N)=O)C(=O)N[C@H](C(=O)NCC(=O)N[C@@H](CO)C(=O)N[C@@H](CC(N)=O)C(=O)N[C@H](C(=O)N[C@@H](Cc1ccc(O)cc1)C(N)=O)[C@@H](C)O)C(C)C)[C@@H](C)O [Peptide 4] ({C18 diacid-γGlu-γGlu}-GGGKCNTATCATQRLANFLVHSSNNFGPILPPTNVGSNTY-NH2; disulfide 5-10) | <5 h | increases the fibril-forming tendency |
| CC[C@H](C)[C@H](NC(=O)[C@@H]1CCCN1C(=O)CNC(=O)[C@](C)(Cc1ccccc1)NC(=O)[C@H](CC(N)=O)NC(=O)[C@H](CC(N)=O)NC(=O)[C@H](CO)NC(=O)[C@H](CO)NC(=O)[C@H](Cc1c[nH]cn1)NC(=O)[C@@H](NC(=O)[C@H](CC(C)C)NC(=O)[C@H](Cc1ccccc1)NC(=O)[C@H](CC(N)=O)NC(=O)[C@H](C)NC(=O)[C@H](CC(C)C)NC(=O)[C@H](CCCNC(=N)N)NC(=O)[C@H](CCC(N)=O)NC(=O)[C@@H](NC(=O)[C@H](C)NC(=O)[C@@H]1CSSC[C@H](NC(=O)[C@@H](N)CCCCNC(=O)CC[C@H](NC(=O)CC[C@H](NC(=O)CCCCCCCCCCCCCCCCC(=O)O)C(=O)O)C(=O)O)C(=O)N[C@@H](CC(N)=O)C(=O)N[C@@H]([C@@H](C)O)C(=O)N[C@@H](C)C(=O)N[C@@H]([C@@H](C)O)C(=O)N1)[C@@H](C)O)C(C)C)C(=O)N[C@@H](CC(C)C)C(=O)N1CCC[C@H]1C(=O)N1CCC[C@H]1C(=O)N[C@H](C(=O)N[C@@H](CC(N)=O)C(=O)N[C@H](C(=O)NCC(=O)N[C@@H](CO)C(=O)N[C@@H](CC(N)=O)C(=O)N[C@H](C(=O)N[C@@H](Cc1ccc(O)cc1)C(N)=O)[C@@H](C)O)C(C)C)[C@@H](C)O [Peptide 13, K(γE-γE-C18diacid)[CNTATC]ATQRLANFLVHSSNN(αMePhe)GPILPPTNVGSNTY-amide] (H-K([γGlu-γGlu-C18 diacid])CNTATCATQRLANFLVHSSNN[αMeF]GPILPPTNVGSNTY-NH2; disulfide 2-7; N-terminus assumed) | 25 h | – |
| CC[C@H](C)[C@H](NC(=O)[C@@H]1CCCN1C(=O)CNC(=O)[C@H](Cc1ccccc1)NC(=O)[C@H](CC(N)=O)NC(=O)[C@H](CC(N)=O)NC(=O)[C@H](CO)NC(=O)[C@H](CO)NC(=O)[C@H](Cc1c[nH]cn1)NC(=O)[C@@H](NC(=O)[C@H](CC(C)C)NC(=O)[C@H](Cc1ccccc1)NC(=O)[C@H](CC(N)=O)NC(=O)[C@H](C)NC(=O)[C@H](CC(C)C)NC(=O)[C@H](CCCNC(=N)N)NC(=O)[C@H](CCC(N)=O)NC(=O)[C@@H](NC(=O)[C@H](C)NC(=O)[C@@H]1CSSC[C@H](NC(=O)[C@H](CCCCN)NC(=O)CC[C@H](NC(=O)CCCCCCCCCCCCCCCCCCC(=O)O)C(=O)O)C(=O)N[C@@H](CC(N)=O)C(=O)N[C@@H]([C@@H](C)O)C(=O)N[C@@H](C)C(=O)N[C@@H]([C@@H](C)O)C(=O)N1)[C@@H](C)O)C(C)C)C(=O)N[C@@H](CC(C)C)C(=O)N1CCC[C@H]1C(=O)N1CCC[C@H]1C(=O)N[C@H](C(=O)N[C@@H](CC(N)=O)C(=O)N[C@H](C(=O)NCC(=O)N[C@@H](CO)C(=O)N[C@@H](CC(N)=O)C(=O)N[C@H](C(=O)N[C@@H](Cc1ccc(O)cc1)C(N)=O)[C@@H](C)O)C(C)C)[C@@H](C)O [Peptide 112] ({C20 diacid-γGlu}-KCNTATCATQRLANFLVHSSNNFGPILPPTNVGSNTY-NH2; disulfide 2-7) | <5 h | increases the fibril-forming tendency |
| CC[C@H](C)[C@H](NC(=O)[C@@H]1CCCN1C(=O)CNC(=O)[C@H](Cc1ccccc1)NC(=O)[C@H](CC(N)=O)NC(=O)[C@H](CCN)NC(=O)[C@H](CO)NC(=O)[C@H](CO)NC(=O)[C@H](Cc1c[nH]cn1)NC(=O)[C@@H](NC(=O)[C@H](CC(C)C)NC(=O)[C@H](Cc1ccccc1)NC(=O)[C@H](CC(N)=O)NC(=O)[C@H](C)NC(=O)[C@H](CC(C)C)NC(=O)[C@H](CCCNC(=N)N)NC(=O)[C@H](CCC(N)=O)NC(=O)[C@@H](NC(=O)[C@H](C)NC(=O)[C@@H]1CSSC[C@H](NC(=O)[C@H](CCCCN)NC(=O)[C@@H](N)CCCCNC(=O)CC[C@H](NC(=O)CCCCCCCCCCCCCCCCC(=O)O)C(=O)O)C(=O)N[C@@H](CC(N)=O)C(=O)N[C@@H]([C@@H](C)O)C(=O)N[C@@H](C)C(=O)N[C@@H]([C@@H](C)O)C(=O)N1)[C@@H](C)O)C(C)C)C(=O)N[C@@H](CC(C)C)C(=O)N1CCC[C@H]1C(=O)N1CCC[C@H]1C(=O)N[C@H](C(=O)N[C@@H](CCC(=O)O)C(=O)N[C@H](C(=O)NCC(=O)N[C@@H](CO)C(=O)N[C@@H](CC(N)=O)C(=O)N[C@H](C(=O)N[C@@H](Cc1ccc(O)cc1)C(N)=O)[C@@H](C)O)C(C)C)[C@@H](C)O [Peptide 28, K(γE-C18diacid)K[CNTATC]ATQRLANFLVHSS(Dab)NFGPILPPTEVGSNTY-amide] (H-K([γGlu-C18 diacid])KCNTATCATQRLANFLVHSS[Dab]NFGPILPPTEVGSNTY-NH2; disulfide 3-8; N-terminus assumed) | 45 h | – |

Results, then the molecule that gave them:

| Time taken to detect increase in fluorescence intensity | fibril-forming tendency on conjugating pramlintide to a lipid | Structure (SMILES) |
| --- | --- | --- |
| >144 h | – | CC[C@H](C)[C@H](NC(=O)[C@@H]1CCCN1C(=O)CNC(=O)[C@H](Cc1ccccc1)NC(=O)[C@H](CC(N)=O)NC(=O)C(C)(C)NC(=O)[C@H](CO)NC(=O)[C@H](CO)NC(=O)[C@H](Cc1c[nH]cn1)NC(=O)[C@@H](NC(=O)[C@H](CC(C)C)NC(=O)[C@H](Cc1ccccc1)NC(=O)[C@H](CC(N)=O)NC(=O)[C@H](C)NC(=O)[C@H](CC(C)C)NC(=O)[C@H](CCCNC(=N)N)NC(=O)[C@H](CCC(N)=O)NC(=O)[C@@H](NC(=O)[C@H](C)NC(=O)[C@@H]1CSSC[C@H](NC(=O)[C@H](CCCCN)NC(=O)[C@@H](N)CCCCNC(=O)CC[C@H](NC(=O)CCCCCCCCCCCCCCCCC(=O)O)C(=O)O)C(=O)N[C@@H](CC(N)=O)C(=O)N[C@@H]([C@@H](C)O)C(=O)N[C@@H](C)C(=O)N[C@@H]([C@@H](C)O)C(=O)N1)[C@@H](C)O)C(C)C)C(=O)N[C@@H](CC(C)C)C(=O)N1CCC[C@H]1C(=O)N1CCC[C@H]1C(=O)N[C@H](C(=O)NC(C)(C)C(=O)N[C@H](C(=O)NCC(=O)N[C@@H](CO)C(=O)N[C@@H](CC(N)=O)C(=O)N[C@H](C(=O)N[C@@H](Cc1ccc(O)cc1)C(N)=O)[C@@H](C)O)C(C)C)[C@@H](C)O [Peptide 80, K(γE-C18diacid)K[CNTATC]ATQRLANFLVHSS(Aib)NFGPILPPT(Aib)VGSNTY-amide] (H-K([γGlu-C18 diacid])KCNTATCATQRLANFLVHSS[Aib]NFGPILPPT[Aib]VGSNTY-NH2; disulfide 3-8; N-terminus assumed) |
| >144 h | – | CC[C@H](C)[C@H](NC(=O)[C@@H]1CCCN1C(=O)CNC(=O)[C@](C)(Cc1ccccc1)NC(=O)[C@H](CC(N)=O)NC(=O)[C@H](CC(N)=O)NC(=O)[C@H](CO)NC(=O)[C@H](CO)NC(=O)[C@H](Cc1c[nH]cn1)NC(=O)[C@@H](NC(=O)[C@H](CC(C)C)NC(=O)[C@H](Cc1ccccc1)NC(=O)[C@H](CC(N)=O)NC(=O)[C@H](C)NC(=O)[C@H](CC(C)C)NC(=O)[C@H](CCCNC(=N)N)NC(=O)[C@H](CCC(N)=O)NC(=O)[C@@H](NC(=O)[C@H](C)NC(=O)[C@@H]1CSSC[C@H](NC(=O)[C@@H](N)CCCCNC(=O)CC[C@H](NC(=O)CC[C@H](NC(=O)CCCCCCCCCCCCCCCCC(=O)O)C(=O)O)C(=O)O)C(=O)N[C@@H](CC(N)=O)C(=O)N[C@@H]([C@@H](C)O)C(=O)N[C@@H](C)C(=O)N[C@@H]([C@@H](C)O)C(=O)N1)[C@@H](C)O)C(C)C)C(=O)N[C@@H](CC(C)C)C(=O)N1CCC[C@H]1C(=O)N1CCC[C@H]1C(=O)N[C@H](C(=O)N[C@@H](CCCNC(=N)N)C(=O)N[C@H](C(=O)NCC(=O)N[C@@H](CO)C(=O)N[C@@H](CC(N)=O)C(=O)N[C@H](C(=O)N[C@@H](Cc1ccc(O)cc1)C(N)=O)[C@@H](C)O)C(C)C)[C@@H](C)O [Peptide 24, K(γE-γE-C18diacid)[CNTATC]ATQRLANFLVHSSNN(αMePhe)GPILPPTRVGSNTY-amide] (H-K([γGlu-γGlu-C18 diacid])CNTATCATQRLANFLVHSSNN[αMeF]GPILPPTRVGSNTY-NH2; disulfide 2-7; N-terminus assumed) |
